Experimental data as given in PubChem BioAssay AID720642 (The Scripps Research Institute Molecular Screening Center, 2013).
The source made the active and inactive calls.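 The calls were made as follows: active = EC50 activation potency at or below 10 µM in this mu opioid counterscreen; inactive = EC50 above 10 µM or never reaching half activation.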

These compounds were tested against Mu-type opioid receptor (Homo sapiens) (UniProt P35372) (assay: mu opioid receptor activation potency – cell-based, luminescence, dose response, powder samples, counter-screen for mouse HTR2A agonist project, late-stage follow-up (AID 720642)). Settings: U2OS OPRM1 beta-arrestin complementation.
Sequence of Mu-type opioid receptor (Homo sapiens) (P35372 whole entry, looked up): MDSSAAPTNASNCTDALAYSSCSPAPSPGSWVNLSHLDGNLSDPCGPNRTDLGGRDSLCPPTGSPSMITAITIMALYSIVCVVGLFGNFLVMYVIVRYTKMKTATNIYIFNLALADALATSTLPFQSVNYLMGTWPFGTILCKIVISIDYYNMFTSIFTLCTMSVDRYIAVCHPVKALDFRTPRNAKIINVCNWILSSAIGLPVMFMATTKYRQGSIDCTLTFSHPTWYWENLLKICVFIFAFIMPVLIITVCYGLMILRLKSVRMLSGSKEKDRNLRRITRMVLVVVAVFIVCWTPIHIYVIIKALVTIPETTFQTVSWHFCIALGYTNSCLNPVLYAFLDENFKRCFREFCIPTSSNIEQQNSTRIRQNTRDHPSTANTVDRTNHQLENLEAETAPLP
For Cc1ccc(CN2CCN(c3ccccn3)CC2)s1, the EC50 was > 92.5 µM (inactive).
CCOC(=O)C1CCN(Cc2cccc(Oc3ccc(Cl)cc3)c2)CC1 was tested, and the EC50 was > 92.5 µM (inactive).
With Clc1ccccc1CN1CCN(c2ncccn2)CC1 the EC50 was > 92.5 µM (inactive).
For c1ccc(N2CCN(Cc3ccsc3)CC2)nc1, the EC50 was > 92.5 µM (inactive).
In the case of CCOC(=O)N1CCN(Cc2ccc(OCC(O)CN3CCCCC3)cc2)CC1 (centres undefined), the EC50 is reported as > 92.5 µM (inactive).
Brc1ccc(CN2CCN(c3ccccn3)CC2)s1 was tested, and the EC50 was > 92.5 µM (inactive).
In the case of CC(COc1ccccc1)N1CCC(CO)(Cc2ccccc2)CC1 (centres undefined), the EC50 is reported as > 92.5 µM (inactive).
With c1ccc(COc2ccc(CN3CCN(c4ccccn4)CC3)cc2)cc1 the EC50 was > 92.5 µM (inactive).
C=CCN1CCc2nc(N)sc2CC1 was tested, and the EC50 was > 92.5 µM (inactive).
COc1ccc(CC2(CO)CCN(Cc3cc4ccccc4o3)CC2)cc1 was tested, and the EC50 was > 92.5 µM (inactive).
COc1ccc(CN2CCN(c3ncccn3)CC2)c(OC)c1 was tested, and the EC50 was > 92.5 µM (inactive).
For Oc1ccc(CN2CCN(c3ncccn3)CC2)cc1, the EC50 was > 92.5 µM (inactive).
For COc1ccc(CN2CCN(C(=O)c3ccco3)CC2)cc1OCc1ccccc1, the EC50 was > 92.5 µM (inactive).
In the case of Cc1ccsc1CN1CCN(c2ccccn2)CC1, the EC50 is reported as > 92.5 µM (inactive).
Cc1ccc(CN2CCN(c3ncccn3)CC2)o1 was tested, and the EC50 was > 92.5 µM (inactive).
In the case of Cc1cccc(CN2CCN(c3ccccn3)CC2)c1, the EC50 is reported as > 92.5 µM (inactive).
With CC1CC(C)CN(CCOc2cccc(Cl)c2Cl)C1 (centres undefined) the EC50 was > 92.5 µM (inactive).
In the case of CCCN1CCC[C@H](c2cccc(O)c2)C1, the EC50 is reported as > 92.5 µM (inactive).
CCOc1cc(CN2CCN(C(=O)c3ccco3)CC2)ccc1OC was tested, and the EC50 was > 92.5 µM (inactive).
For Clc1ccc(CN2CCN(c3ncccn3)CC2)cc1Cl, the EC50 was > 92.5 µM (inactive).
For OCC1(Cc2cccc(C(F)(F)F)c2)CCN(Cc2cc3ccccc3o2)CC1, the EC50 was > 92.5 µM (inactive).
For Cc1cccc(CN2CCN(c3ncccn3)CC2)c1, the EC50 was > 92.5 µM (inactive).
COc1cc(CN2CCN(c3ncccn3)CC2)cc(OC)c1 was tested, and the EC50 was > 92.5 µM (inactive).
c1ccc(CN2CCN(c3ncccn3)CC2)cc1 was tested, and the EC50 was > 92.5 µM (inactive).
For NC[C@@H]1O[C@H](C23CC4CC(CC(C4)C2)C3)Cc2c1ccc(O)c2O, the EC50 was > 92.5 µM (inactive).
With CC(=O)N1CCC(N2CCN(c3ccccc3F)CC2)CC1 the EC50 was > 92.5 µM (inactive).
With COc1cc(Br)cc(CN2CCN(c3ncccn3)CC2)c1O the EC50 was > 92.5 µM (inactive).
For COc1ccc(CN2CCN(c3ncccn3)CC2)c(C)c1C, the EC50 was > 92.5 µM (inactive).
For Clc1ccc(CN2CCN(c3ncccn3)CC2)cc1, the EC50 was > 92.5 µM (inactive).
With Cn1cc(C(F)(F)F)nc1-c1ccc(OCC(O)CNCCOc2ccc(O)c(C(N)=O)c2)cc1 (centres undefined) the EC50 was > 92.5 µM (inactive).
In the case of Clc1ccccc1CN1CCN(c2ccccc2)CC1, the EC50 is reported as > 92.5 µM (inactive).
With COc1ccccc1C(=O)NCCN1CCN(c2ccccc2)CC1 the EC50 was > 92.5 µM (inactive).
With CC(CCc1ccc(O)cc1)NCCc1ccc(O)c(O)c1 (centres undefined) the EC50 was > 92.5 µM (inactive).
In the case of Fc1cccc(CN2CCN(c3ncccn3)CC2)c1, the EC50 is reported as > 92.5 µM (inactive).
CCCN(CCC)C1CCc2cccc(O)c2C1 (centres undefined) was tested, and the EC50 was > 92.5 µM (inactive).
With CC1(C)C(C=C(Cl)Cl)C1C(=O)N1CCN(Cc2ccccc2)CC1 (centres undefined) the EC50 was > 92.5 µM (inactive).
With O=C(CN1CCN(c2ccccn2)CC1)Nc1ccc(Oc2ccccc2)cc1 the EC50 was > 92.5 µM (inactive).
For Fc1ccccc1CN1CCN(c2ncccn2)CC1, the EC50 was > 92.5 µM (inactive).
With O=C(c1ccco1)N1CCN(Cc2ccc(Cl)cc2)CC1 the EC50 was > 92.5 µM (inactive).
With COc1cccc(-n2cc(CNCc3cn(C)nc3-c3ccccc3F)cn2)c1 the EC50 was > 92.5 µM (inactive).
With CC(C)C[C@H]1C(=O)N2CCC[C@H]2[C@]2(O)O[C@](NC(=O)[C@@H]3C=C4c5cccc6[nH]c(Br)c(c56)CC4N(C)C3)(C(C)C)C(=O)N12 (some centres undefined) the EC50 was > 92.5 µM (inactive).
In the case of CCn1c(=O)cc(SCC(=O)NCCCN2CCN(c3ccccc3F)CC2)c2ccccc21, the EC50 is reported as > 92.5 µM (inactive).
For NC1CCc2cc(O)c(O)cc2C1 (centres undefined), the EC50 was > 92.5 µM (inactive).
With CN(c1ccc(C(=O)N2CCN(Cc3ccccc3)CC2)cc1)S(=O)(=O)c1ccc(Cl)cc1 the EC50 was > 92.5 µM (inactive).
With CCCN1C[C@H](CSC)C[C@@H]2c3cccc4[nH]cc(c34)C[C@H]21 the EC50 was > 92.5 µM (inactive).
For Fc1ccc(F)c(CN2CCN(c3ncccn3)CC2)c1, the EC50 was > 92.5 µM (inactive).
Brc1cccc(CN2CCN(c3ncccn3)CC2)c1 was tested, and the EC50 was > 92.5 µM (inactive).
In the case of OC(COc1ccc2cc(Br)ccc2c1)CN1CCN(c2ccccn2)CC1 (centres undefined), the EC50 is reported as > 92.5 µM (inactive).
For CCOc1ccc(NC(=O)CCN2CCN(c3ccccc3F)CC2)cc1, the EC50 was > 92.5 µM (inactive).
With Cc1ccc(CN2CCN(c3ncccn3)CC2)c(C)c1 the EC50 was > 92.5 µM (inactive).
For COc1cccc(OCC(O)CN2CCN(c3ccccn3)CC2)c1 (centres undefined), the EC50 was > 92.5 µM (inactive).
For CCc1ccc(CN2CCN(C(=O)c3ccco3)CC2)cc1, the EC50 was > 92.5 µM (inactive).
With CC(=O)N1CCc2cc(C(=O)CN3CCN(c4cccc(Cl)c4)CC3)ccc21 the EC50 was > 92.5 µM (inactive).
COc1ccc(CN2CCN(c3ccccn3)CC2)c(OC)c1 was tested, and the EC50 was > 92.5 µM (inactive).
